Measurements: ChEMBL document CHEMBL1122017, “Synthesis and peripheral cardiovascular action of cis- and trans-2-(3,4-dimethoxybenzyl)cyclopentylamine hydrochlorides” (1982)

Tests used:
Canis familiaris [1] = assay: Mean percent decrease in mean blood pressure was determined at the dose of 15 umol/kg (2 minutes after injection) in mongrel dogs; type: functional, Canis lupus familiaris
Canis familiaris [2] = assay: Mean percent decrease in mean blood pressure was determined at the dose of 15 umol/kg in mongrel dogs; type: functional, Canis lupus familiaris

Structure (SMILES) | Decrease in blood pressure (Canis familiaris [1]) [%] | Decrease in blood pressure (Canis familiaris [2]) [%]
COc1ccc(C[C@@H]2CCC[C@@H]2N)cc1OC | 37.9 | 30
COc1ccc(C[C@@H]2CCC[C@H]2N)cc1OC | 7.5 | 25.1
